Data published in publication PMC4490784, “Compensatory induction of MYC expression by sustained CDK9 inhibition via a BRD4-dependent mechanism” (eLife, 2015).

Experiments:
Test in all cases: KINOMEscan binding assay
ACVR2A = target: T1, ACVR2A (Homo sapiens, UniProt P27037); details: read-out: % Retention on Solid Support
T1 construct: purchased DiscoveRx KINOMEscan
Procedure, shortened: (§1)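 i-CDK9 at 1 and 10 µM; competition binding against an immobilized active-site probe; >400-kinase panel.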

ANKK1 = target: T2, ANKK1 (Homo sapiens, UniProt Q8NFD2); details: read-out: % Retention on Solid Support
T2 construct: purchased DiscoveRx KINOMEscan
Procedure, shortened: as §1

AURKB = target: T3, AURKB (Homo sapiens, UniProt Q96GD4); details: read-out: % Retention on Solid Support
T3 construct: purchased DiscoveRx KINOMEscan
Procedure, shortened: as §1

BMPR1B = target: T4, BMPR1B (Homo sapiens, UniProt O00238); details: read-out: % Retention on Solid Support
T4 construct: purchased DiscoveRx KINOMEscan
Procedure, shortened: as §1

CDKL5 = target: T5, CDKL5 (Homo sapiens, UniProt O76039); details: read-out: % Retention on Solid Support
T5 construct: purchased DiscoveRx KINOMEscan
Procedure, shortened: as §1

CLK3 = target: T6, CLK3 (Homo sapiens, UniProt P49761); details: read-out: % Retention on Solid Support
T6 construct: purchased DiscoveRx KINOMEscan
Procedure, shortened: as §1

DCAMKL3 = target: T7, DCAMKL3 (Homo sapiens, UniProt Q9C098); details: read-out: % Retention on Solid Support
T7 construct: purchased DiscoveRx KINOMEscan
Procedure, shortened: as §1

DLK = target: T8, DLK (Homo sapiens, UniProt Q12852)
T8 construct: purchased DiscoveRx KINOMEscan
Procedure, shortened: as §1

DRAK1 = target: T9, DRAK1 (Homo sapiens, UniProt Q9UEE5); details: read-out: % Retention on Solid Support
T9 construct: purchased DiscoveRx KINOMEscan
Procedure, shortened: as §1

EGFR(L858R) = target: T10, EGFR(L858R) (Homo sapiens, UniProt P00533, L858R)
T10 construct: purchased DiscoveRx KINOMEscan
Procedure, shortened: as §1

EGFR(L858R,T790M) = target: T11, EGFR(L858R,T790M) (Homo sapiens, UniProt P00533, L858R/T790M)
T11 construct: purchased DiscoveRx KINOMEscan
Procedure, shortened: as §1

EGFR(L861Q) = target: T12, EGFR(L861Q) (Homo sapiens, UniProt P00533, L861Q)
T12 construct: purchased DiscoveRx KINOMEscan
Procedure, shortened: as §1

EPHB6 = target: T13, EPHB6 (Homo sapiens, UniProt O15197); details: read-out: % Retention on Solid Support
T13 construct: purchased DiscoveRx KINOMEscan
Procedure, shortened: as §1

FES = target: T14, FES (Homo sapiens, UniProt P07332); details: read-out: % Retention on Solid Support
T14 construct: purchased DiscoveRx KINOMEscan
Procedure, shortened: as §1

LATS1 = target: T15, LATS1 (Homo sapiens, UniProt O95835); details: read-out: % Retention on Solid Support
T15 construct: purchased DiscoveRx KINOMEscan
Procedure, shortened: as §1

LIMK1 = target: T16, LIMK1 (Homo sapiens, UniProt P53667); details: read-out: % Retention on Solid Support
T16 construct: purchased DiscoveRx KINOMEscan
Procedure, shortened: as §1

LTK = target: T17, LTK (Homo sapiens, UniProt P29376); details: read-out: % Retention on Solid Support
T17 construct: purchased DiscoveRx KINOMEscan
Procedure, shortened: as §1

MAP4K4 = target: T18, MAP4K4 (Homo sapiens, UniProt O95819); details: read-out: % Retention on Solid Support
T18 construct: purchased DiscoveRx KINOMEscan
Procedure, shortened: as §1

MLK1 = target: T19, MLK1 (Homo sapiens, UniProt P80192); details: read-out: % Retention on Solid Support
T19 construct: purchased DiscoveRx KINOMEscan
Procedure, shortened: as §1

MST2 = target: T20, MST2 (Homo sapiens, UniProt Q13188); details: read-out: % Retention on Solid Support
T20 construct: purchased DiscoveRx KINOMEscan
Procedure, shortened: as §1

NEK4 = target: T21, NEK4 (Homo sapiens, UniProt P51957); details: 1 µM i-CDK9; read-out: % Retention on Solid Support
T21 construct: purchased DiscoveRx KINOMEscan
Procedure, shortened: as §1

PIK3CD = target: T22, PIK3CD (Homo sapiens, UniProt O00329); details: read-out: % Retention on Solid Support
T22 construct: purchased DiscoveRx KINOMEscan
Procedure, shortened: as §1

RIPK1 = target: T23, RIPK1 (Homo sapiens, UniProt Q13546); details: read-out: % Retention on Solid Support
T23 construct: purchased DiscoveRx KINOMEscan
Procedure, shortened: as §1

RIPK4 = target: T24, RIPK4 (Homo sapiens, UniProt P57078); details: read-out: % Retention on Solid Support
T24 construct: purchased DiscoveRx KINOMEscan
Procedure, shortened: as §1

RIPK5 = target: T25, RIPK5 (Homo sapiens, UniProt Q6XUX3); details: 1 µM i-CDK9; read-out: % Retention on Solid Support
T25 construct: purchased DiscoveRx KINOMEscan
Procedure, shortened: as §1

SRPK1 = target: T26, SRPK1 (Homo sapiens, UniProt Q96SB4); details: read-out: % Retention on Solid Support
T26 construct: purchased DiscoveRx KINOMEscan
Procedure, shortened: as §1

TEC = target: T27, TEC (Homo sapiens, UniProt P42680); details: read-out: % Retention on Solid Support
T27 construct: purchased DiscoveRx KINOMEscan
Procedure, shortened: as §1

TGFBR2 = target: T28, TGFBR2 (Homo sapiens, UniProt P37173); details: read-out: % Retention on Solid Support
T28 construct: purchased DiscoveRx KINOMEscan
Procedure, shortened: as §1

TNIK = target: T29, TNIK (Homo sapiens, UniProt Q9UKE5); details: read-out: % Retention on Solid Support
T29 construct: purchased DiscoveRx KINOMEscan
Procedure, shortened: as §1

VEGFR2 = target: T30, VEGFR2 (Homo sapiens, UniProt P35968); details: read-out: % Retention on Solid Support
T30 construct: purchased DiscoveRx KINOMEscan
Procedure, shortened: as §1

T4 sequence (O00238 14-502): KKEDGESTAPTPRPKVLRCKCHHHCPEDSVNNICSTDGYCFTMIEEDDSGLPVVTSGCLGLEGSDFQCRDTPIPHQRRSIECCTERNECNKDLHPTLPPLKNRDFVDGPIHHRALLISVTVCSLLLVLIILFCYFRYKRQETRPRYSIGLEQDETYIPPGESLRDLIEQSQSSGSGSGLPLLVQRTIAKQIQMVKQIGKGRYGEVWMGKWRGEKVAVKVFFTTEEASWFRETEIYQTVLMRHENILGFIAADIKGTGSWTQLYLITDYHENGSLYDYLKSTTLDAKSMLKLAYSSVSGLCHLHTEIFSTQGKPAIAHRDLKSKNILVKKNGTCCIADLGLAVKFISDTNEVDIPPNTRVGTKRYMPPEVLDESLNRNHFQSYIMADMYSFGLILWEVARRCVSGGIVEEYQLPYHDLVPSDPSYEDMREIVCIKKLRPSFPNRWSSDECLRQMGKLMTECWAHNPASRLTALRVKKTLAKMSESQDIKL
T28 sequence (P37173 23-567): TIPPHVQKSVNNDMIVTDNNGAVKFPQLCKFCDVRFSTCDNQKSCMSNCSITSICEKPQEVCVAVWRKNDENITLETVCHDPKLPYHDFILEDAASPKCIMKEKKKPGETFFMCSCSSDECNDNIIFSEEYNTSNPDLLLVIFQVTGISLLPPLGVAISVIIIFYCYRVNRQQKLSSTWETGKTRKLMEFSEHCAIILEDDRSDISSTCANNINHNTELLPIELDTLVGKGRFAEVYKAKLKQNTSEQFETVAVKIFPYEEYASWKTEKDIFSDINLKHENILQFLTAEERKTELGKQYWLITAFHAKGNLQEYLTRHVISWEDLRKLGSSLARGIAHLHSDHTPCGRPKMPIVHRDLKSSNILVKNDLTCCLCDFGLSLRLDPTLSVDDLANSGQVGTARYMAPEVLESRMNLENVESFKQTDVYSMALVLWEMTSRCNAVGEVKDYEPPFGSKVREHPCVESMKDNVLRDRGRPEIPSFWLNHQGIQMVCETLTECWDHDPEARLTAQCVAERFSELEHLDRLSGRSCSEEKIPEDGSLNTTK
T17 sequence (P29376 17-864): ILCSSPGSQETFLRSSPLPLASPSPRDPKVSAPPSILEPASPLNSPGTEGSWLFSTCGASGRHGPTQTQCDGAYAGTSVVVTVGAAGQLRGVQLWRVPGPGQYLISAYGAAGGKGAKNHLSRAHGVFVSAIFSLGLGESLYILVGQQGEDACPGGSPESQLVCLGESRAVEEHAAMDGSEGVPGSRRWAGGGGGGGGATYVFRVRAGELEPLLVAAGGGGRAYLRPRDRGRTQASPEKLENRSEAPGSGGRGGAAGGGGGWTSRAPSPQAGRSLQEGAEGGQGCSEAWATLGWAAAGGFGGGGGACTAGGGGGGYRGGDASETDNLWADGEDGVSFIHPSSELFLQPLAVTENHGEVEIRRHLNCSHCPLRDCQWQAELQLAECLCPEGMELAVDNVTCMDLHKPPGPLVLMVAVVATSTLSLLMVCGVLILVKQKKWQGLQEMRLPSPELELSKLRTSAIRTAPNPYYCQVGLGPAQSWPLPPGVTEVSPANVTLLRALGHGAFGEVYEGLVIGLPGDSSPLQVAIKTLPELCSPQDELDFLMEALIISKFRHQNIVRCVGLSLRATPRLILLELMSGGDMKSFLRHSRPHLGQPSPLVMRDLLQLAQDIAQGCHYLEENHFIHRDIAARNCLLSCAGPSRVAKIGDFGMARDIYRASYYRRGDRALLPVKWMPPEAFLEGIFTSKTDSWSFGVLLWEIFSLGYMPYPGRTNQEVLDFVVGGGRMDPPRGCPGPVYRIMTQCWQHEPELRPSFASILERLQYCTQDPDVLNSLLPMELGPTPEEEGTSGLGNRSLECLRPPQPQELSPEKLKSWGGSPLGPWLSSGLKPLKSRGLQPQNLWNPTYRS
T13 sequence (O15197 32-1021): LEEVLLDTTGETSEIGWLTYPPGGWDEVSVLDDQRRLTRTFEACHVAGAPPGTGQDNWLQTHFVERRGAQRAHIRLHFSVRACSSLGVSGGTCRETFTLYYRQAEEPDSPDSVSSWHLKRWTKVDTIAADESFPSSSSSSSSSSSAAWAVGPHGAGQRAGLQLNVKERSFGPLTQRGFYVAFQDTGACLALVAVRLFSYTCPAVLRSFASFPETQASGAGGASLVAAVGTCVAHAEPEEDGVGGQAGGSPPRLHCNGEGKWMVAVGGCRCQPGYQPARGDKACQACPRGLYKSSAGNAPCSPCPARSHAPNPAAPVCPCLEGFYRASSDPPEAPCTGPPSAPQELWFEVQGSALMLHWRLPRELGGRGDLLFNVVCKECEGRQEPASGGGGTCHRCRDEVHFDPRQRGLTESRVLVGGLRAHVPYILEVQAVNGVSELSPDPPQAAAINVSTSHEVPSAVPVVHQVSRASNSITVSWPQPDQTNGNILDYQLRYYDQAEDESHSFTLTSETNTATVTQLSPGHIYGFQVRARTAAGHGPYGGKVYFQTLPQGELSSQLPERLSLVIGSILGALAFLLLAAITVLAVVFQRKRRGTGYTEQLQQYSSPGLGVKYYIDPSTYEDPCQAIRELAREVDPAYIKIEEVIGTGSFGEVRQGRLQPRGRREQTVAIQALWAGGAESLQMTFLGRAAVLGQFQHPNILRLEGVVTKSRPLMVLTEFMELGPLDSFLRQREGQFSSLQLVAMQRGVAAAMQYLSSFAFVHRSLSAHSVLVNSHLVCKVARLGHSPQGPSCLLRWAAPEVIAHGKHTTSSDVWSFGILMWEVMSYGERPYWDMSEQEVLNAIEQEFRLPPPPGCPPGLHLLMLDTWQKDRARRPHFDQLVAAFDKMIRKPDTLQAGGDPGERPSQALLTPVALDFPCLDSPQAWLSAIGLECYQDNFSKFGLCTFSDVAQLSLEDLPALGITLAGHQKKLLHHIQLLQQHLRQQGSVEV
T6 sequence (P49761 whole entry): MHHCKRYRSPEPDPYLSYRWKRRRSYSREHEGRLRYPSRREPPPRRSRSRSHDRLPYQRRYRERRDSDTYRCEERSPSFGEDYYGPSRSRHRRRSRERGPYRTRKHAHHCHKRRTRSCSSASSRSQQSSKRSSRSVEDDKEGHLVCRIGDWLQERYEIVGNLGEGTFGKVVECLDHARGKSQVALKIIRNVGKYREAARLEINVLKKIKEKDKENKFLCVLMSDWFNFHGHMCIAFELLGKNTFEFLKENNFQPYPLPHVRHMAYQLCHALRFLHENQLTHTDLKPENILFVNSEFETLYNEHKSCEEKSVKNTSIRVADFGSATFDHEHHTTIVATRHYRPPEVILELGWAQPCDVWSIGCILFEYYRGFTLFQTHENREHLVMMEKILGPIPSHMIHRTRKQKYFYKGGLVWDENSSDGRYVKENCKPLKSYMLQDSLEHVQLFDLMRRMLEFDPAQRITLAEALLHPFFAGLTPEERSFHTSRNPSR
T18 sequence (O95819 whole entry): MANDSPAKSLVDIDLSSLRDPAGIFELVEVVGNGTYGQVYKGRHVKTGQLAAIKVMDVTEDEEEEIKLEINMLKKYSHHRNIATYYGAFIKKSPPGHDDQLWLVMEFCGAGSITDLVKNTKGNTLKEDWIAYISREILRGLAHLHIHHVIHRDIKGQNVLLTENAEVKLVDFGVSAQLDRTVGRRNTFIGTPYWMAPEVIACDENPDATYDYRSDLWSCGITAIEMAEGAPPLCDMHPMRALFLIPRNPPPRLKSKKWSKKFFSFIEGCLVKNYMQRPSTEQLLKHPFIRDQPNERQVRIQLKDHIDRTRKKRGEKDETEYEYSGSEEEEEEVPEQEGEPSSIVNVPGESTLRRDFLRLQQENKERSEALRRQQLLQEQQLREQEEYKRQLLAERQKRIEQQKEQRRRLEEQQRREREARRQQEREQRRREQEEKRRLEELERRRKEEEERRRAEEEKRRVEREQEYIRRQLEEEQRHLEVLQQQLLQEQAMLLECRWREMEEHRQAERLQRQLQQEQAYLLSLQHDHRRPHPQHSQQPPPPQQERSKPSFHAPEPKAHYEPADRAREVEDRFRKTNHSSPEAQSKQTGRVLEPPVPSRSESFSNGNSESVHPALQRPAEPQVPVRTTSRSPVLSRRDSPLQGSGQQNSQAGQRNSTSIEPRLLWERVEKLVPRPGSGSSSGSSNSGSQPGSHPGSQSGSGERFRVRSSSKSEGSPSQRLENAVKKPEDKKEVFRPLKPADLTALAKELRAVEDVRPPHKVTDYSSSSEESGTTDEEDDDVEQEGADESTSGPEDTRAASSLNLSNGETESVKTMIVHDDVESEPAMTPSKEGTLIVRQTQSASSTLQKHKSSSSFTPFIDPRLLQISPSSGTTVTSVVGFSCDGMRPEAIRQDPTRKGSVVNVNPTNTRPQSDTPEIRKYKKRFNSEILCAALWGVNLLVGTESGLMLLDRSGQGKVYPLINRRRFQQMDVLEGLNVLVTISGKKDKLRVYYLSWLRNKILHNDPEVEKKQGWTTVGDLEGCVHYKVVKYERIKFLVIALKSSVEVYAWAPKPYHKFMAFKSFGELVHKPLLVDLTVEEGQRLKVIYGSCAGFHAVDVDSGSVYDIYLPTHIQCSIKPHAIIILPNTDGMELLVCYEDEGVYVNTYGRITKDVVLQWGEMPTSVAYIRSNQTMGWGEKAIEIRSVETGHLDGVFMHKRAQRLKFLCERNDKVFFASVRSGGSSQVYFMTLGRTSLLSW
T9 sequence (Q9UEE5 whole entry): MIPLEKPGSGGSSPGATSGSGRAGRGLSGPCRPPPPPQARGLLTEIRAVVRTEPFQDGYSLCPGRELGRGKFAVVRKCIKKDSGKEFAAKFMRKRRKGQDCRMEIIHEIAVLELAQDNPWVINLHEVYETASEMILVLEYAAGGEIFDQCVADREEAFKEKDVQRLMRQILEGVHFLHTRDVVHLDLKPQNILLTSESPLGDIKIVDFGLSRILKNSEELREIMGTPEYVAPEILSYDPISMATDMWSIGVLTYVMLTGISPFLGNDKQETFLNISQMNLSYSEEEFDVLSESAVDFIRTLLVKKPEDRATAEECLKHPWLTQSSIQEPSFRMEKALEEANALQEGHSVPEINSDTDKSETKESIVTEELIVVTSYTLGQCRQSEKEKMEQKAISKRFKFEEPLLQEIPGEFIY

## N[C@H]1CC[C@H](Nc2cc(-c3cccc(NCc4cccc(F)c4)n3)c(Cl)cn2)CC1 [i-CDK9, N2′-(trans-4-aminocyclohexyl)-5′-chloro-N6-(3-fluorobenzyl)-2,4′-bipyridine-2′,6-diamine]
ACVR2A; 1 µM i-CDK9
  remaining binding at 1 µM: 98%
ACVR2A; 10 µM i-CDK9
  remaining binding at 10 µM: 91%
ANKK1; 1 µM i-CDK9
  remaining binding at 1 µM: 100%
ANKK1; 10 µM i-CDK9
  remaining binding at 10 µM: 100%
AURKB; 1 µM i-CDK9
  remaining binding at 1 µM: 72%
AURKB; 10 µM i-CDK9
  remaining binding at 10 µM: 91%
BMPR1B; 1 µM i-CDK9
  remaining binding at 1 µM: 100%
BMPR1B; 10 µM i-CDK9
  remaining binding at 10 µM: 89%
CDKL5; 1 µM i-CDK9
  remaining binding at 1 µM: 52%
CDKL5; 10 µM i-CDK9
  remaining binding at 10 µM: 3.8%
CLK3; 1 µM i-CDK9
  remaining binding at 1 µM: 88%
CLK3; 10 µM i-CDK9
  remaining binding at 10 µM: 25%
DCAMKL3; 1 µM i-CDK9
  remaining binding at 1 µM: 100%
DCAMKL3; 10 µM i-CDK9
  remaining binding at 10 µM: 63%
DLK; 1 µM i-CDK9
  % Retention on Solid Support: 100%
DLK; 10 µM i-CDK9
  % Retention on Solid Support: 71%
DRAK1; 1 µM i-CDK9
  remaining binding at 1 µM: 90%
DRAK1; 10 µM i-CDK9
  remaining binding at 10 µM: 48%
EGFR(L858R); 1 µM i-CDK9
  % Retention on Solid Support: 35%
EGFR(L858R); 10 µM i-CDK9
  % Retention on Solid Support: 100%
EGFR(L858R,T790M); 1 µM i-CDK9
  % Retention on Solid Support: 100%
EGFR(L858R,T790M); 10 µM i-CDK9
  % Retention on Solid Support: 89%
EGFR(L861Q); 1 µM i-CDK9
  % Retention on Solid Support: 78%
EGFR(L861Q); 10 µM i-CDK9
  % Retention on Solid Support: 74%
EPHB6; 1 µM i-CDK9
  remaining binding at 1 µM: 47%
EPHB6; 10 µM i-CDK9
  remaining binding at 10 µM: 74%
FES; 1 µM i-CDK9
  remaining binding at 1 µM: 97%
FES; 10 µM i-CDK9
  remaining binding at 10 µM: 90%
LATS1; 1 µM i-CDK9
  remaining binding at 1 µM: 100%
LATS1; 10 µM i-CDK9
  remaining binding at 10 µM: 100%
LIMK1; 1 µM i-CDK9
  remaining binding at 1 µM: 90%
LIMK1; 10 µM i-CDK9
  remaining binding at 10 µM: 100%
LTK; 1 µM i-CDK9
  remaining binding at 1 µM: 92%
LTK; 10 µM i-CDK9
  remaining binding at 10 µM: 100%
MAP4K4; 1 µM i-CDK9
  remaining binding at 1 µM: 65%
MAP4K4; 10 µM i-CDK9
  remaining binding at 10 µM: 19%
MLK1; 1 µM i-CDK9
  remaining binding at 1 µM: 100%
MLK1; 10 µM i-CDK9
  remaining binding at 10 µM: 100%
MST2; 1 µM i-CDK9
  remaining binding at 1 µM: 72%
MST2; 10 µM i-CDK9
  remaining binding at 10 µM: 100%
NEK4
  remaining binding at 1 µM: 100%
PIK3CD; 1 µM i-CDK9
  remaining binding at 1 µM: 100%
PIK3CD; 10 µM i-CDK9
  remaining binding at 10 µM: 100%
RIPK1; 1 µM i-CDK9
  remaining binding at 1 µM: 100%
RIPK1; 10 µM i-CDK9
  remaining binding at 10 µM: 100%
RIPK4; 1 µM i-CDK9
  remaining binding at 1 µM: 53%
RIPK4; 10 µM i-CDK9
  remaining binding at 10 µM: 100%
RIPK5
  remaining binding at 1 µM: 100%
SRPK1; 1 µM i-CDK9
  remaining binding at 1 µM: 100%
SRPK1; 10 µM i-CDK9
  remaining binding at 10 µM: 70%
TEC; 1 µM i-CDK9
  remaining binding at 1 µM: 99%
TEC; 10 µM i-CDK9
  remaining binding at 10 µM: 100%
TGFBR2; 1 µM i-CDK9
  remaining binding at 1 µM: 87%
TGFBR2; 10 µM i-CDK9
  remaining binding at 10 µM: 100%
TNIK; 1 µM i-CDK9
  remaining binding at 1 µM: 72%
TNIK; 10 µM i-CDK9
  remaining binding at 10 µM: 36%
VEGFR2; 1 µM i-CDK9
  remaining binding at 1 µM: 83%
VEGFR2; 10 µM i-CDK9
  remaining binding at 10 µM: 93%
